Measurements reported in patent US20230010375A1, “ANTI-VIRAL COMPOSITION” (priority 2020, published 2023).

System: COVID-19
Details: human, in vivo

## O=C([O-])O.[Na+] [bicarbonate of soda, sodium bicarbonate]
  second swab test (Covid-19): non-conclusive
  third swab test (Covid-19): negative
po
  symptoms after the first 2/3rds of a dose: no symptoms
